Each structure is given as a SMILES string. Read-outs that look alike come from different tables or passages of the source.

The nature of series [1]: Study 3: concentrations in plasma, epithelial lining fluid (ELF) and alveolar macrophages (AM) after 800 mg once daily for three days. The class given is in vivo, human. Particulars: for Kp / Kp at 3 h / Kp at 6 h / Kp at 9 h / Kp at 12 h / Kp at 24 h / Kp at 48 h: both sexes, human; for Kp: oral, range over the 48-hour period after drug administration, 800 mg once daily for 3 days; for Kp at 3 h / Kp at 6 h / Kp at 9 h / Kp at 12 h / Kp at 24 h / Kp at 48 h: healthy subjects, 800 mg oral once daily for 3 days, mean ± SD; for Kp at 3 h: sampling time 3 hr after third dose; for Kp at 6 h: sampling time 6 hr after third dose; for Kp at 9 h: sampling time 9 hr after third dose; for Kp at 12 h: sampling time 12 hr after third dose; for Kp at 24 h: sampling time 24 hr after third dose; for Kp at 48 h: sampling time 48 hr after third dose. The method, then:
Healthy male and female subjects 18 years of age or older who met the study entry criteria were enrolled into the pharmacokinetic study. Each subject received 800 mg (2 tablets of 400 mg) of compound of Formula (I) administered once daily for three days, with 240 ml of drinking water at a consistent time within two hours after a standard meal and direct observation at the study site. Blood samples were collected to measure concentration of compound of Formula (I) in plasma at 3, 6, 9, 12, 24, and 48 hours following the third dose of compound of Formula (I). Similarly, bronchoscopy was done to measure concentration of compound of Formula (I) in epithelial lining fluid (ELF) and alveolar macrophages (AM) 3, 6, 9, 12, 24, and 48 hours following the third dose of compound of Formula (I). The mean (±SD) concentrations of compound of Formula (I) in plasma (total), ELF, and AM at the bronchopulmonary sampling times are illustrated in FIG. 4. […] Table 1 gives the mean (±SD) ratios of compound of Formula (I) in ELF or AM to the simultaneous total plasma concentrations. The mean ratios of ELF and AM to simultaneous total plasma concentration for compound of Formula (I) during the 48-hour period after drug administration ranged from 10 to 30 and 270 to 800, respectively.

Series [2] is described as follows: Study 2: Phase 1 multiple ascending dose, drug concentrations in plasma and polymorphonuclear leukocytes (PMN). It counts as in vivo, human. The following applies: healthy subjects, 600, 800 and 1000 mg once daily day 1 to day 7; sampling day 1 and day 7. How it is done:
A Phase 1, randomised, double-blind, single center, placebo controlled sequential cohort study in a maximum of 3 cohort of 10 healthy male and/or female subject each was conducted. Subjects received ascending multiple doses of compound of Formula (I) (600, 800 and 1000 mg) or matching placebo once daily on day 1 to day 7. Blood sampling was performed on day 1 and day 7 to determine the drug concentrations in plasma and polymorphonuclear leukocytes (PMN) (FIG. 2 and FIG. 3). […] Blood sampling was also undertaken at intermittent days to determine the number of doses required to attain the steady state.

[3] abbreviates: alveolar macrophages (AM) / plasma (total), read-out: AM to Plasma (Total) concentration ratio.
Where [4] appears, read: epithelial lining fluid (ELF) / plasma (total), read-out: ELF to Plasma (Total) concentration ratio.

Regarding `CC[C@@H]1OC(=O)[C@H](C)C(=O)[C@H](C)[C@@H](OC2O[C@H](C)C[C@H](N(C)C)[C@H]2O)[C@](C)(OC)C[C@@H](C)C(=O)[C@H](C)[C@H]2[C@H](/C(N)=N/O[C@@H](C)c3nnc(-c4ccccn4)s3)C(=O)O[C@@]21C` (stereo partly shown) [compound of Formula (I)], the Kp in series [1] (alveolar macrophages (AM) / plasma (total), read-out: mean ratio of AM to simultaneous total plasma concentration) is 270 to 800. Moreover, in series [1] (setting [3]), the Kp at 3 h turned out to be 274 ± 187, the Kp at 6 h was found to be 378 ± 172, the Kp at 9 h worked out at 383 ± 260 and the Kp at 12 h worked out at 791 ± 614. In series [1] (setting [3]), the Kp at 24 h worked out at 486 ± 193 and the Kp at 48 h was 428 ± 189. Besides, the Kp in series [1] (epithelial lining fluid (ELF) / plasma (total), read-out: mean ratio of ELF to simultaneous total plasma concentration) was in the range of 10 to 30. Moreover, in series [1] (setting [4]), the Kp at 3 h stood at 17 ± 12, the Kp at 6 h is 14.5 ± 8.8, the Kp at 9 h amounted to 10.4 ± 6.5 and the Kp at 12 h came out at 12.4 ± 9.3. Further, in series [1] (setting [4]), the Kp at 24 h was found to be 17.6 ± 6.2 and the Kp at 48 h is 27.2 ± 6.5. Further, the “concentrations in ELF and AM compared with simultaneous plasma concentrations” value in series [1] (oral 800 mg, throughout the 48-hour period after 3 days of once-daily dosing) is “significantly higher in ELF and AM than simultaneous plasma concentrations”. Further, in series [2], the “accumulation in polymorphonuclear leukocytes (PMN) in comparison to plasma” value is “accumulated more in polymorphonuclear leukocytes (PMN) in comparison to plasma”.

For the origin of these results see patent publication US20180036292A1, “PHARMACEUTICAL COMPOSITIONS FOR THE TREATMENT OF BACTERIAL INFECTIONS” (WOCKHARDT LIMITED, priority 2016, published 2018).
